Laboratory results taken from ChEMBL document CHEMBL1140090, “Discovery of orally bioavailable 1,3,4-trisubstituted 2-oxopiperazine-based melanocortin-4 receptor agonists as potential antiobesity agents” (J Med Chem, 2008).

How the values were obtained:
in vitro [1] = conditions: human, Caco-2
in vitro [2] = conditions: human, Caco-2; remark: listed apart in the source

Q: With CNC(=O)[C@H](Cc1ccc2ccccc2c1)N1CCN(C(=O)[C@H](N)Cc2ccc(F)cc2)[C@@H](CCNC(=N)N)C1=O as the compound, how does the Papp A→B (in vitro [1]) read?
A: 0.333 ×10⁻⁶ cm/s

Q: And the Papp (in vitro [2])?
A: 0.333 ×10⁻⁶ cm/s

Q: Which results are given for C=CC[C@H]1C(=O)N([C@@H](Cc2ccc3ccccc3c2)C(=O)NC)CCN1C(=O)[C@H](N)Cc1ccc(F)cc1?
A: Papp A→B (in vitro [1]): 6.5 ×10⁻⁶ cm/s; Papp (in vitro [2]): 15.2 ×10⁻⁶ cm/s
